Experimental data: patent US10131652B2, “Pyrimidinyloxy benzene derivatives as herbicides” (E. I. DU PONT DE NEMOURS AND COMPANY, priority 2014, dated 2018)

Assays:
Format in all cases: in vivo
[1] = tested on: small-flower umbrella sedge (Cyperus difformis); assay: Test C flooded paddy test plant response; conditions: Flood, 250 g ai/ha; scale of 0 to 100 where 0 is no effect and 100 is complete control; 13 to 15 days
How it was run: (§1)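 2-leaf plants; flood 3 cm, cpd into paddy water; greenhouse 13–15 d; visual score vs untreated, 0 = no effect, 100 = complete control; dash = no result.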

[2] = tested on: barnyardgrass (Echinochloa crus-galli); assay: Test C flooded paddy test plant response; conditions: Flood, 250 g ai/ha; scale of 0 to 100 where 0 is no effect and 100 is complete control; 13 to 15 days
How it was run: as §1

rice (Oryza sativa) = assay: Test C flooded paddy test plant response; conditions: Flood, 250 g ai/ha; scale of 0 to 100 where 0 is no effect and 100 is complete control; 13 to 15 days
How it was run: as §1

[3] = tested on: ducksalad (Heteranthera limosa); assay: Test C flooded paddy test plant response; conditions: Flood, 250 g ai/ha; scale of 0 to 100 where 0 is no effect and 100 is complete control; 13 to 15 days
How it was run: as §1

[4] = tested on: lambsquarters (Chenopodium album); assay: Test D pre-/postemergence plant response
How it was run: (§2)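 0 = no effect, 100 = complete control: plants were scored this way by visual comparison with controls 13 to 15 days post-treatment. Application was preemergence to sown loam/sand pots or postemergence to 2–18 cm seedlings in peat-based mix.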

[5] = tested on: velvetleaf (Abutilon theophrasti); assay: Test D pre-/postemergence plant response
How it was run: as §2

soybean (Glycine max) = assay: Test D pre-/postemergence plant response
How it was run: as §2

[6] = tested on: waterhemp (common waterhemp, Amaranthus rudis); assay: Test D pre-/postemergence plant response
How it was run: as §2

[7] = tested on: winter wheat (Triticum aestivum); assay: Test D pre-/postemergence plant response
How it was run: as §2

[8] = tested on: morningglory (Ipomoea coccinea); assay: Test D pre-/postemergence plant response
How it was run: as §2

[9] = tested on: johnsongrass (Sorghum halepense); assay: Test D pre-/postemergence plant response
How it was run: as §2

[10] = tested on: barnyardgrass (Echinochloa crus-galli); assay: Test B pre-/postemergence plant response
How it was run: (§3)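 Scoring used a 0–100 scale (100 = complete control) by visual comparison with untreated plants after approximately 10 days in the greenhouse. Compounds, in surfactant-containing non-phytotoxic solvent, were sprayed onto soil at planting or onto 2–10 cm seedlings.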

[11] = tested on: giant foxtail (Setaria faberii); assay: Test B pre-/postemergence plant response
How it was run: as §3

corn (Zea mays) = assay: Test B pre-/postemergence plant response
How it was run: as §3

[12] = tested on: wheat (Triticum aestivum); assay: Test B pre-/postemergence plant response
How it was run: as §3

[13] = tested on: pigweed (Amaranthus retroflexus); assay: Test B pre-/postemergence plant response
How it was run: as §3

[14] = Postemergence, 31 g ai/ha, scale 0 to 100 (0 no effect, 100 complete control)
[15] = Postemergence, 62 g ai/ha, scale 0 to 100, 0 no effect, 100 complete control
[16] = Postemergence, 125 g ai/ha, scale 0 to 100, 0 no effect, 100 complete control
[17] = Preemergence, 16 g ai/ha, scale 0 to 100 (0 no effect, 100 complete control)
[18] = Preemergence, 31 g ai/ha, scale 0 to 100 (0 no effect, 100 complete control)
[19] = Preemergence, 62 g ai/ha, scale 0 to 100 (0 no effect, 100 complete control)
[20] = 125 g ai/ha, postemergence, 0 to 100 scale, 0 no effect, 100 complete control
[21] = Postemergence, 500 g ai/ha, 0 to 100 scale (0 no effect, 100 complete control)
[22] = Preemergence, 125 g ai/ha, 0 to 100 scale (0 no effect, 100 complete control)
[23] = Preemergence, 500 g ai/ha, 0 to 100 scale where 0 is no effect and 100 is complete control

`Clc1cnc(Oc2ccccc2-c2cc(C3CC3)on2)nc1` [Compound 183] was tested, and the “Sedge, Umbrella plant response rating” value [1] was 75, the “Barnyardgrass plant response rating” value [2] was 0 and the “Rice plant response rating” value (rice (Oryza sativa)) was 0. For the same compound, the “Ducksalad plant response rating” value [3] was 85, the “Plant response rating (scale 0 to 100), Lambsquarters” value ([4]; Postemergence, 16 g ai/ha) was 35 and the “Lambsquarters plant response rating” value [4, 14] was 65. The “Lambsquarters plant response rating” value [4, 15] was 65, the “Plant response rating, Lambsquarters” value [4, 16] was 75 and the “Plant response rating (scale 0 to 100), Lambsquarters” value ([4]; Preemergence, 125 g ai/ha) was 100. For the same compound, the “Plant response rating, Lambsquarters” value [4, 17] was 80, the “Plant response rating, Lambsquarters” value [4, 18] was 85 and the “Plant response rating, Lambsquarters” value [4, 19] was 90. The “Plant response rating (scale 0 to 100), Velvetleaf” value ([5]; Postemergence, 16 g ai/ha) was 30, the “Velvetleaf plant response rating” value [5, 14] was 55 and the “Velvetleaf plant response rating” value [5, 15] was 55. The “Plant response rating, Velvetleaf” value [5, 16] was 55, the “Plant response rating (scale 0 to 100), Velvetleaf” value ([5]; Preemergence, 125 g ai/ha) was 100 and the “Plant response rating, Velvetleaf” value [5, 17] was 40. The “Plant response rating, Velvetleaf” value [5, 18] was 80, the “Plant response rating, Velvetleaf” value [5, 19] was 90 and the “Plant response rating (scale 0 to 100), Soybean” value (soybean (Glycine max); Postemergence, 16 g ai/ha) was 65. The “Soybean plant response rating” value (soybean (Glycine max); [14]) was 55, the “Soybean plant response rating” value (soybean (Glycine max); [15]) was 75 and the “Plant response rating, Soybean” value (soybean (Glycine max); [16]) was 90. For the same compound, the “Plant response rating (scale 0 to 100), Soybean” value (soybean (Glycine max); Preemergence, 125 g ai/ha) was 80, the “Plant response rating, Soybean” value (soybean (Glycine max); [17]) was 0 and the “Plant response rating, Soybean” value (soybean (Glycine max); [18]) was 10. For the same compound, the “Plant response rating, Soybean” value (soybean (Glycine max); [19]) was 35, the “Plant response rating (scale 0 to 100), Waterhemp” value ([6]; Postemergence, 16 g ai/ha) was 80 and the “Waterhemp plant response rating” value [6, 14] was 80. For the same compound, the “Waterhemp plant response rating” value [6, 15] was 75, the “Plant response rating, Waterhemp” value [6, 16] was 98 and the “Plant response rating (scale 0 to 100), Waterhemp” value ([6]; Preemergence, 125 g ai/ha) was 100. For the same compound, the “Plant response rating, Waterhemp” value [6, 17] was 10, the “Plant response rating, Waterhemp” value [6, 18] was 100 and the “Plant response rating, Waterhemp” value [6, 19] was 95. For the same compound, the “Plant response rating (scale 0 to 100), Wheat” value ([7]; Postemergence, 16 g ai/ha) was 5, the “Wheat plant response rating” value [7, 14] was 20 and the “Wheat plant response rating” value [7, 15] was 30. The “Plant response rating, Wheat” value [7, 16] was 30, the “Plant response rating (scale 0 to 100), Wheat” value ([7]; Preemergence, 125 g ai/ha) was 0 and the “Plant response rating, Wheat” value [7, 17] was 0. The “Plant response rating, Wheat” value [7, 18] was 0, the “Plant response rating, Wheat” value [7, 19] was 0 and the “Plant response rating (scale 0 to 100), Morningglory” value ([8]; Postemergence, 16 g ai/ha) was 65. For the same compound, the “Morningglory plant response rating” value [8, 14] was 75, the “Morningglory plant response rating” value [8, 15] was 90 and the “Plant response rating, Morningglory” value [8, 16] was 90. For the same compound, the “Plant response rating (scale 0 to 100), Morningglory” value ([8]; Preemergence, 125 g ai/ha) was 40, the “Plant response rating, Morningglory” value [8, 17] was 0 and the “Plant response rating, Morningglory” value [8, 18] was 0. For the same compound, the “Plant response rating, Morningglory” value [8, 19] was 5, the “Plant response rating (scale 0 to 100), Johnsongrass” value ([9]; Postemergence, 16 g ai/ha) was 0 and the “Johnsongrass plant response rating” value [9, 14] was 5. The “Plant response rating, Johnsongrass” value [9, 15] was 5, the “Plant response rating, Johnsongrass” value [9, 16] was 10 and the “Plant response rating (scale 0 to 100), Johnsongrass” value ([9]; Preemergence, 125 g ai/ha) was 45. The “Plant response rating, Johnsongrass” value [9, 17] was 0, the “Plant response rating, Johnsongrass” value [9, 18] was 5 and the “Plant response rating, Johnsongrass” value [9, 19] was 20. The “Plant response rating, Barnyardgrass” value [10, 20] was 40, the “Plant response rating, Barnyardgrass” value [10, 21] was 70 and the “Barnyardgrass plant response rating” value [10, 22] was 30. The “Plant response rating, Barnyardgrass” value [10, 23] was 80, the “Plant response rating, Foxtail, Giant” value [11, 20] was 60 and the “Plant response rating, Foxtail, Giant” value [11, 21] was 80. The “Foxtail, Giant plant response rating” value [11, 22] was 80, the “Plant response rating, Foxtail, Giant” value [11, 23] was 90 and the “Plant response rating, Corn” value (corn (Zea mays); [20]) was 10. For the same compound, the “Plant response rating, Corn” value (corn (Zea mays); [21]) was 30, the “Plant response rating, Wheat” value [12, 20] was 10 and the “Plant response rating, Wheat” value [12, 21] was 60. The “Plant response rating, Pigweed” value [13, 20] was 100, the “Plant response rating, Pigweed” value [13, 21] was 100 and the “Pigweed plant response rating” value [13, 22] was 90. For the same compound, the “Plant response rating, Pigweed” value [13, 23] was 100.
In the case of `Clc1cnc(Oc2ccccc2-c2ccon2)nc1` [Compound 185], the “Sedge, Umbrella plant response rating” value [1] is reported as 0, the “Barnyardgrass plant response rating” value [2] is reported as 0 and the “Rice plant response rating” value (rice (Oryza sativa)) is reported as 0. The “Ducksalad plant response rating” value [3] was 0, the “Plant response rating (scale 0 to 100), Lambsquarters” value ([4]; Postemergence, 16 g ai/ha) was 10 and the “Lambsquarters plant response rating” value [4, 14] was 10. The “Lambsquarters plant response rating” value [4, 15] was 15, the “Plant response rating, Lambsquarters” value [4, 16] was 20 and the “Plant response rating (scale 0 to 100), Velvetleaf” value ([5]; Postemergence, 16 g ai/ha) was 5. For the same compound, the “Velvetleaf plant response rating” value [5, 14] was 10, the “Velvetleaf plant response rating” value [5, 15] was 10 and the “Plant response rating, Velvetleaf” value [5, 16] was 25. The “Plant response rating (scale 0 to 100), Soybean” value (soybean (Glycine max); Postemergence, 16 g ai/ha) was 15, the “Soybean plant response rating” value (soybean (Glycine max); [14]) was 30 and the “Soybean plant response rating” value (soybean (Glycine max); [15]) was 35. For the same compound, the “Plant response rating, Soybean” value (soybean (Glycine max); [16]) was 45, the “Plant response rating (scale 0 to 100), Waterhemp” value ([6]; Postemergence, 16 g ai/ha) was 5 and the “Waterhemp plant response rating” value [6, 14] was 25. The “Waterhemp plant response rating” value [6, 15] was 25, the “Plant response rating, Waterhemp” value [6, 16] was 30 and the “Plant response rating (scale 0 to 100), Wheat” value ([7]; Postemergence, 16 g ai/ha) was 0. The “Wheat plant response rating” value [7, 14] was 0, the “Wheat plant response rating” value [7, 15] was 0 and the “Plant response rating, Wheat” value [7, 16] was 0. For the same compound, the “Plant response rating (scale 0 to 100), Morningglory” value ([8]; Postemergence, 16 g ai/ha) was 0, the “Morningglory plant response rating” value [8, 14] was 25 and the “Morningglory plant response rating” value [8, 15] was 10. The “Plant response rating, Morningglory” value [8, 16] was 65, the “Plant response rating (scale 0 to 100), Johnsongrass” value ([9]; Postemergence, 16 g ai/ha) was 0 and the “Johnsongrass plant response rating” value [9, 14] was 0. The “Plant response rating, Johnsongrass” value [9, 15] was 5, the “Plant response rating, Johnsongrass” value [9, 16] was 5 and the “Plant response rating, Barnyardgrass” value [10, 20] was 10. The “Plant response rating, Barnyardgrass” value [10, 21] was 40, the “Barnyardgrass plant response rating” value [10, 22] was 20 and the “Plant response rating, Barnyardgrass” value [10, 23] was 70. For the same compound, the “Plant response rating, Foxtail, Giant” value [11, 20] was 10, the “Plant response rating, Foxtail, Giant” value [11, 21] was 70 and the “Foxtail, Giant plant response rating” value [11, 22] was 30. The “Plant response rating, Foxtail, Giant” value [11, 23] was 90, the “Plant response rating, Corn” value (corn (Zea mays); [20]) was 0 and the “Plant response rating, Corn” value (corn (Zea mays); [21]) was 10. The “Plant response rating, Wheat” value [12, 20] was 0, the “Plant response rating, Wheat” value [12, 21] was 0 and the “Plant response rating, Pigweed” value [13, 20] was 90. For the same compound, the “Plant response rating, Pigweed” value [13, 21] was 100, the “Pigweed plant response rating” value [13, 22] was 90 and the “Plant response rating, Pigweed” value [13, 23] was 100.
